Consider 22 molecules from patent US9403830B2, “Inhibitors of leukotriene production” (Boehringer Ingelheim International GmbH, priority 2012, dated 2016).

By IC50 is commonly meant the concentration that inhibits the measured activity by half.

The target of assay [1] is T1, human LTA4 hydrolase (Homo sapiens, UniProt P09960).
T1 sequence (P09960 1-611): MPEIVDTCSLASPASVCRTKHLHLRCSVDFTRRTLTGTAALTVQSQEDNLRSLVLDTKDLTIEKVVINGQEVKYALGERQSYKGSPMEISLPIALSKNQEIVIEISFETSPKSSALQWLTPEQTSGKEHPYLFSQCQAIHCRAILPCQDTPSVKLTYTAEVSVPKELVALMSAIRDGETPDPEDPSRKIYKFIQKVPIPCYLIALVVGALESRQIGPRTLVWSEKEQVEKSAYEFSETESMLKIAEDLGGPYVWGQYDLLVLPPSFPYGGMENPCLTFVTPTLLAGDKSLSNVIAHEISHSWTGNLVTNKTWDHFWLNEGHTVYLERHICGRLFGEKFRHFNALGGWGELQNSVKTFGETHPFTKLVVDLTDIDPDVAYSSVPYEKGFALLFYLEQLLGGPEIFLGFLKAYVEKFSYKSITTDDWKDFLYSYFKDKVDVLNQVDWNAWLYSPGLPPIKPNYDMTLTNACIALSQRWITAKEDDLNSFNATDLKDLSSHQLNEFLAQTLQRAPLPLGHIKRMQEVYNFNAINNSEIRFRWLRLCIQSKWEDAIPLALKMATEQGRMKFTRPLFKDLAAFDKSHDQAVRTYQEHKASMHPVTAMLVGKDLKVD
Briefly: LTA4H Enzyme assay (peptidase, Arg-AMC cleavage). The assay is classed as biochemical. Particulars: LTA4H enzyme 1 nM, Arg-AMC substrate 50 μM, room temperature 1 h, fluorescence 380/460 nm. How it is done: The compounds of the invention are assessed for the ability to interact with human LTA4 hydrolase in an enzymatic assay that measures the ability of the enzyme to cleave the peptide bond of arginyl-aminomethylcoumarin (Arg-AMC). LTA4H Enzyme (1 nM final), Arg-AMC substrate (50 μM final), and compound are combined in a reaction buffer (50 mM Tris-HCl (pH 7.5), 100 mM KCl, 0.5% bovine serum albumin) at room temperature for 1 h. The formation of product is assessed by measuring the fluorescence of aminomethylcoumarin product (excitation wavelength 380 nm/emission wavelength 460 nm). In general, the preferred potency range (IC50) of compounds in the LTA4H Enzyme assay is between 0.1 nM to 10 μM, the more preferred potency range is 0.1 nM to 0.1 μM, and the most preferred potency range is 0.1 nM to 10 nM.

The test system of assay [2] is LTB4 synthesis in human whole blood. Briefly: human whole blood (HWB) assay, inhibition of LTB4 production. The conditions noted are these: heparinized human whole blood, calcimycin 20 μM stimulation, plasma LTB4. The format is cell-based. The protocol:
The compounds of the invention are additionally tested in a human whole blood (HWB) assay to determine their ability to inhibit the synthesis of LTB4 in a cellular system. Compounds are combined with heparinized human whole blood and incubated for 15 minutes at 37° C. Calcimycin (20 μM final, prepared in phosphate-buffered saline, pH 7.4) is then added and the mixture is incubated for another 30 minutes at 37° C. The samples are centrifuged for 5 min at low speed (1500×g) and the plasma layer is removed. Plasma LTB4 concentrations are then measured using an antibody-based homogenous time-resolved fluorescence method (CisBio, Bedford, Mass.). In general, the preferred potency range (IC50) of compounds in the HWB assay is between 10 nM to 10 μM, the more preferred potency range is 10 nM to 1 μM, and the most preferred potency range is 10 nM to 100 nM.

For the molecule `O=C(CO)N1CCN(Cc2ccc3cc(Oc4ccc(-c5ccn[nH]5)cn4)ccc3n2)CC1` [Example 27, 2-Hydroxy-1-(4-{6-[5-(2H-pyrazol-3-yl)-pyridin-2-yloxy]-quinolin-2-ylmethyl}-piperazin-1-yl)-ethanone], the 50% inhibitory concentration (IC50) was 0.72 nM in assay [1] and 150 nM in assay [2].

Turning to `CC1(NC(=O)CO)CCN(Cc2ccc3cc(Oc4ccc(-c5ccn[nH]5)cn4)ccc3n2)CC1` [Example 46, 2-Hydroxy-N-(4-methyl-1-{6-[5-(2H-pyrazol-3-yl)-pyridin-2-yloxy]-quinolin-2-ylmethyl}-piperidin-4-yl)-acetamide], the IC50 turned out to be 1.6 nM in assay [1] and 540 nM in assay [2].

Consider `O=C1CC[C@@H](Cn2cc3cc(Oc4ccc(-c5ccn[nH]5)cc4)ccc3n2)N1` [Example 251, (S)-5-{5-[4-(2H-Pyrazol-3-yl)-phenoxy]-indazol-2-ylmethyl}-pyrrolidin-2-one], for which the concentration for half-maximal inhibition (IC50) in assay [1] was 0.87 nM; in assay [2], 220 nM.

With `O=S1(=O)CCN(Cc2ccc3cc(Oc4ccc(-c5cc[nH]n5)cn4)ccc3n2)CC1` [Example 242, 2-(1,1-Dioxo-1-λ-6-thiomorpholin-4-ylmethyl)-6-[5-(1H-pyrazol-3-yl)-pyridin-2-yloxy]-quinoline], the half-inhibitory concentration (IC50) in assay [1] was found to be 1.6 nM; in assay [2], 210 nM.

For `CN(Cc1nc2cc(Oc3ccc(-c4ccn[nH]4)cc3)ccc2[nH]1)CC1CCCO1` (centres unmarked) [Example 85, Methyl-{5-[4-(2H-pyrazol-3-yl)-phenoxy]-1H-benzoimidazol-2-ylmethyl}-(tetrahydro-furan-2-ylmethyl)-amine], the IC50 in assay [1] stood at 0.24 nM; in assay [2] it was 120 nM.

As to `COC[C@H](C)NCc1nc2cc(Oc3ccc(-c4ccn[nH]4)cc3)ccc2[nH]1` [Example 189, ((S)-2-Methoxy-1-methyl-ethyl)-{5-[4-(2H-pyrazol-3-yl)-phenoxy]-1H-benzoimidazol-2-ylmethyl}-amine], the half-inhibitory concentration (IC50) in assay [1] worked out at 0.23 nM; in assay [2] it was 160 nM.

Turning to `C[C@@H]1CN(Cc2nc3cc(Oc4ccc(-c5ccn[nH]5)cc4)ccc3[nH]2)C[C@H](C)O1` [Example 53, 2-((2R,6S)-2,6-Dimethyl-morpholin-4-ylmethyl)-5-[4-(2H-pyrazol-3-yl)-phenoxy]-1H-benzoimidazole], the IC50 in assay [1] came to 0.096 nM; in assay [2], 67 nM.

With `N#CCC1CCN(Cc2ccc3cc(Oc4ccc(-c5ccn[nH]5)cn4)ccc3n2)CC1` [Example 96, (1-{6-[5-(2H-Pyrazol-3-yl)-pyridin-2-yloxy]-quinolin-2-ylmethyl}-piperidin-4-yl)-acetonitrile], the results for the IC50 in assay [1] and in assay [2] were 0.79 nM and 160 nM, respectively.

Consider `COCC(=O)NC1CCN(CC2Cc3ccc(Oc4ccc(-c5ccn[nH]5)cc4)cc3O2)CC1` (centres unmarked) [Example 170, 2-Methoxy-N-(1-{6-[4-(2H-pyrazol-3-yl)-phenoxy]-2,3-dihydro-benzofuran-2-ylmethyl}-piperidin-4-yl)-acetamide], for which the IC50 in assay [1] was 0.35 nM; in assay [2], 120 nM.

For `c1cc(-c2ccc(Oc3ccc4nc(CN5CCC5)ccc4c3)nc2)[nH]n1` [Example 21, 2-Azetidin-1-ylmethyl-6-[5-(2H-pyrazol-3-yl)-pyridin-2-yloxy]-quinoline], the IC50 in assay [1] was 0.22 nM; in assay [2] it was 86 nM.

Consider `C[C@H](O)C(=O)N1CCN(Cc2ccc3cc(Oc4ccc(-c5ccn[nH]5)cc4)ccc3n2)CC1` [Example 13, (S)-2-hydroxy-1-(4-{6-[4-(2H-pyrazol-3-yl)-phenoxy]-quinolin-2-ylmethyl}-piperazin-1-yl)-propan-1-one], for which the IC50 was 0.59 nM in assay [1] and 200 nM in assay [2].

With `COCC(=O)N1CCN(Cc2ccc3cc(Oc4ccc(-c5ccn[nH]5)cn4)ccc3c2)CC1` [Example 1, 2-Methoxy-1-(4-{6-[5-(2H-pyrazol-3-yl)-pyridin-2-yloxy]-naphthalen-2-ylmethyl}-piperazin-1-yl)-ethanone], the IC50 in assay [1] turned out to be 0.63 nM; in assay [2], 180 nM.

In the case of `COCC(=O)N1CCN(Cc2ccc3cc(Oc4ccc(-c5ccn[nH]5)cn4)ccc3n2)CC1` [Example 28, 2-methoxy-1-(4-{6-[5-(2H-pyrazol-3-yl)-pyridin-2-yloxy]-quinolin-2-ylmethyl}-piperazin-1-yl)-ethanone], the IC50 came out at 0.87 nM in assay [1] and 150 nM in assay [2].

In the case of `CC(=O)N1CCN(CCn2ccc3cc(Oc4ccc(-c5ccn[nH]5)cn4)ccc32)CC1` [Example 224, 1-[4-(2-{5-[5-(2H-Pyrazol-3-yl)-pyridin-2-yloxy]-indol-1-yl}-ethyl)-piperazin-1-yl]-ethanone], the concentration for half-maximal inhibition (IC50) in assay [1] amounted to 2.3 nM; in assay [2] it was 540 nM.

`CCN(Cc1nc2cc(Oc3ccc(-c4ccn[nH]4)cc3)ccc2[nH]1)[C@@H](C)COC` [Example 86, Ethyl-((S)-2-methoxy-1-methyl-ethyl)-{5-[4-(2H-pyrazol-3-yl)-phenoxy]-1H-benzoimidazol-2-ylmethyl}-amine]: the IC50 was 0.056 nM in assay [1] and 120 nM in assay [2].

With `O=C1NCC[C@@H]1NCc1ccc2cc(Oc3ccc(-c4ccn[nH]4)cn3)ccc2n1` [Example 49, (S)-3-({6-[5-(2H-Pyrazol-3-yl)-pyridin-2-yloxy]-quinolin-2-ylmethyl}-amino)-pyrrolidin-2-one], the values for the 50% inhibitory concentration (IC50) in assay [1] and in assay [2] were 8.9 nM and 860 nM, respectively.

As for `OCC1CCCCN1Cc1nc2cc(Oc3ccc(-c4ccn[nH]4)cc3)ccc2[nH]1` (centres unmarked) [Example 195, (1-{5-[4-(2H-Pyrazol-3-yl)-phenoxy]-1H-benzoimidazol-2-ylmethyl}-piperidin-2-yl)-methanol], the IC50 in assay [1] was 0.14 nM; in assay [2] it was 180 nM.

For `CC(=O)NC1CCN(Cc2ccc3cc(Oc4ccc(-c5cc[nH]n5)cn4)ccc3n2)CC1` [Example 237, N-(1-{6-[5-(1H-Pyrazol-3-yl)-pyridin-2-yloxy]-quinolin-2-ylmethyl}-piperidin-4-yl)-acetamide], the IC50 in assay [1] is 0.84 nM; in assay [2], 210 nM.

For `COC[C@H](C)N(C)Cc1nc2cc(Oc3ccc(-c4ccn[nH]4)cc3)ccc2[nH]1` [Example 82, ((S)-2-Methoxy-1-methyl-ethyl)-methyl-{5-[4-(2H-pyrazol-3-yl)-phenoxy]-1H-benzoimidazol-2-ylmethyl}-amine], the values for the IC50 in assay [1] and in assay [2] were 0.077 nM and 110 nM, respectively.

Take `Cc1nc2ccc(Oc3ccc(-c4ccn[nH]4)cc3)cc2cc1CN1CCCC1` [Example 256, 2-Methyl-6-[4-(2H-pyrazol-3-yl)-phenoxy]-3-pyrrolidin-1-ylmethyl-quinoline]: the values for the concentration for half-maximal inhibition (IC50) in assay [1] and in assay [2] were 1.6 nM and 480 nM, respectively.

Take `c1cc(-c2ccc(Oc3ccc4nn(CCCN5CCOCC5)cc4c3)cc2)[nH]n1` [Example 84, 2-(3-Morpholin-4-yl-propyl)-5-[4-(2H-pyrazol-3-yl)-phenoxy]-2H-indazole]: the figures for the IC50 in assay [1] and in assay [2] were 0.36 nM and 120 nM, respectively.

With `COCCN(C)Cc1ccc2cc(Oc3ccc(-c4ccn[nH]4)cn3)ccc2n1` [Example 122, (2-Methoxy-ethyl)-methyl-{6-[5-(2H-pyrazol-3-yl)-pyridin-2-yloxy]-quinolin-2-ylmethyl}-amine], the values for the IC50 in assay [1] and in assay [2] were 0.97 nM and 200 nM, respectively.
